According to US20090306020A1, “Combination therapy comprising diaryl ureas for treating diseases” (Bayer Healthcare AG, priority 2005, published 2009):
Entries after “also recorded” stand apart in the source; their conditions may differ.

Legend:
β3 integrin = experiment: Immunohistochemistry for β3 integrin in metastatic melanoma reconstructs; assay type: cell-based, human; conditions: Skmel28 and WM451Lu in dermal reconstructs, 4 μM wortmannin, 6 μM BAY 43-9006, alone or combined
Experimental: (§1) The in vitro reconstruction of metastatic melanoma is based on the organotypic human skin culture technique (14). A cell-free buffered collagen solution was prepared consisting of rat tail collagen type I (BD Biosciences, Bedford, Mass., USA) at a final concentration of 1.35 mg/ml in Dulbecco's modified Eagle's medium with 10% FBS. 1.0 ml of the cell-free collagen solution was added to tissue culture inserts (Millicell PC, Millipore, Bedford, Mass., USA) placed in six-well tissue culture plates. While the acellular collagen layer was solidifying, a second collagen solution was prepared similar to the first with the addition of human fibroblasts and the melanoma cells SKMEL28 or 451 LU. Human fibroblasts and human melanoma cells from subconfluent cultures were trypsinised, washed and resuspended in the second collagen solution at a density of 15×10^5/ml and a fibroblast to melanoma cell ratio of 1:1. 3.0 ml of the fibroblast and melanoma cell-containing collagen solution were placed over the solidified acellular collagen layer. After 5 days of incubation at 37° C., the fibroblast contraction force causes the collagen gel to contract. This structure represents the melanoma reconstruct in a dermal equivalent. For submerged culture conditions, 3 ml of melanoma cell culture medium supplemented with 10% FBS were added beneath the insert and 2 ml inside the insert to allow proliferation of the seeded cells. The culture medium was changed every two days. After 10 to 14 days of submerged culture, the melanoma reconstructs were harvested and evaluated.
For blockade of the AKT and MAPK signaling pathways, the PI3K inhibitor wortmannin (Sigma, Steinheim, Germany) and BAY 43-9006 alone or in combination were added directly to the culture medium of the melanoma reconstructs or melanoma cells in monolayer culture at 4 μM and 6 μM, respectively. These concentrations have been described previously to be effective for melanoma cells 6 (16). The culture medium was changed every two days. […]

MelCAM [1] = experiment: Immunohistochemistry for MelCAM in metastatic melanoma reconstructs; assay type: cell-based, human; conditions: Skmel28 and WM451Lu in dermal reconstructs; 4 μM wortmannin, 6 μM BAY 43-9006, alone or combined
Experimental: as §1, with “For submerged culture conditions, 3 ml of melanoma cell culture medium supplemented with 10% FBS were added beneath the insert and 2 ml inside the insert to allow proliferation of the seeded cells. The culture medium was changed every two days.” left out, “evaluated. […]” for “evaluated.”

[2] = system: Skmel28 metastatic melanoma cells; experiment: Ki-67 proliferation marker staining of melanoma reconstructs (organotypic culture); assay type: cell-based, human; conditions: Skmel28 in dermal reconstructs; 4 μM wortmannin, 6 μM BAY 43-9006, alone or combined; 2-3 weeks
Experimental: as §1, with “For submerged culture conditions, 3 ml of melanoma cell culture medium supplemented with 10% FBS were added beneath the insert and 2 ml inside the insert to allow proliferation of the seeded cells. The culture medium was changed every two days.” left out, “evaluated. […]” for “evaluated.”

avβ3 integrin = experiment: Flow cytometry of cell surface avβ3 integrin, 451Lu monolayer; assay type: cell-based, human; conditions: 4 μM wortmannin, 6 μM BAY 43-9006, alone or combined, 96 hours
Experimental: (§2) For blockade of the AKT and MAPK signaling pathways, the PI3K inhibitor wortmannin (Sigma, Steinheim, Germany) and BAY 43-9006 alone or in combination were added directly to the culture medium of the melanoma reconstructs or melanoma cells in monolayer culture at 4 μM and 6 μM, respectively. […] The culture medium was changed every two days. Melanoma reconstructs treated with culture medium or culture medium with the addition of DMSO served as controls. All experiments were done as duplicates and were repeated twice.
(§3) Surface proteins of 1×10^5-1×10^6 451Lu metastatic melanoma cells were stained as follows: Cells were pelleted for 5 min at 1,800 rpm (Heraeus variofuge 3.0R), blocked with 1×PBS/1% BSA, and after centrifugation incubated with antibodies against MeI-CAM (QBiogene-Alexis) or avβ3 integrin (BD Biosciences, Heidelberg) for 15 minutes at room temperature. Cells were washed with 1×PBS/1% BSA and subsequently incubated with anti mouse IgG-FITC (BD Biosciences, Heidelberg) or mouse IgG-isotype control-FITC alone (BD Biosciences, Heidelberg). After washing and pelleting the cells, the cell pellet was resuspended in 1×PBS and measured in a FACScalibur (BD Bioscienses, Heidelberg).
(§4) Furthermore, we examined whether inhibition of these signaling pathways affected expression of the adhesion molecules MelCAM and avβ3 known to play a key role in melanoma cell invasion. […]

[3] = system: 451Lu metastatic melanoma cells; experiment: Proliferation assay (fluorimetric, 4-methylumbelliferyl heptanoate, MUH), monolayer culture; assay type: cell-based, human; conditions: 451Lu monolayer; wortmannin 2-20 μM, BAY 43-9006 1-7 μM; MUH fluorescence
Experimental: Cells were seeded as triplicates in 96 well plates at a density of 1,500 cells per well in 150 μl medium (1×10^4 cells per ml). The PI3K inhibitor wortmannin (Sigma, Steinheim, Germany) was directly added to the culture medium at concentrations ranging from 2-20 μM. BAY 43-9006 was added directly to the culture medium at concentrations ranging from 0.5-7 μM. Culture medium, cells treated with culture medium, and cells treated with culture medium with the addition of DMSO served as controls. Assay was started at timepoints indicated. Medium was discarded and each well was washed two times with PBS (without Ca2+ and Mg2+) and 100 μl of a solution containing 100 μg MUH (4-methylumbelliferyl-hepanoat)/ml PBS was added. Plates were incubated at 37° C. for one hour and measured in a Fluoroskan II (Labsystems, Helsinki), with an […]. The intensity of fluorescence indicates the number of vital cells in the wells (18,19).
To analyze the effects of inhibition of either the MAPK or AKT signaling pathways or both together on the proliferation of melanoma cells, we treated the metastatic melanoma cell line 451Lu in monolayer with the PI3K inhibitor wortmannin, BAY 43-9006, or both together. […]
The effect of inhibition of these signaling pathways on cell proliferation was determined by a fluorimetric assay using 4-methylumbelliferyl heptanoate (MUH) (18, 19).

[4] = system: Skmel28 metastatic melanoma cells; experiment: Active caspase 3 staining (apoptosis) of melanoma reconstructs; assay type: cell-based, human; conditions: Skmel28 in dermal reconstructs; wortmannin, BAY 43-9006 or both
Experimental: as §1, with “For submerged culture conditions, 3 ml of melanoma cell culture medium supplemented with 10% FBS were added beneath the insert and 2 ml inside the insert to allow proliferation of the seeded cells. The culture medium was changed every two days.” left out, “evaluated. […]” for “evaluated.”

[5] = system: Skmel28 metastatic melanoma cells; experiment: Invasive melanoma growth in human dermal reconstructs (hematoxylin staining); assay type: cell-based; conditions: 4 μM wortmannin; for invasive melanoma growth (number and size of melanoma cell nests): 6 μM BAY 43-9006, alone or combined
Experimental: as §1
For blockade of the AKT and MAPK signaling pathways, the PI3K inhibitor wortmannin (Sigma, Steinheim, Germany) and BAY 43-9006 alone or in combination were added directly to the culture medium of the melanoma reconstructs or melanoma cells in monolayer culture at 4 μM and 6 μM, respectively. These concentrations have been described previously to be effective for melanoma cells 6 (16). The culture medium was changed every two days. Melanoma reconstructs treated with culture medium or culture medium with the addition of DMSO served as controls. All experiments were done as duplicates and were repeated twice.
Melanoma reconstructs were fixed with 4% formaldehyde for 8-9 h, dehydrated, and embedded in paraffin. Paraffin sections were stained with hematoxylin for routine light microscopy. […]
Finally, we determined whether the inhibition of the PI3K/AKT signaling pathway and the MAP kinase signaling pathway is able to affect invasive melanoma growth in a physiological context. […]

[6] = system: phospho-ERK (phospho-p44/42 MAP kinase, Thr202/Tyr204); experiment: Immunohistochemistry for phosphorylated ERK in melanoma reconstructs; assay type: cell-based, human; conditions: Skmel28 reconstructs; 6 μM BAY 43-9006
Experimental: as §1, with “For submerged culture conditions, 3 ml of melanoma cell culture medium supplemented with 10% FBS were added beneath the insert and 2 ml inside the insert to allow proliferation of the seeded cells. The culture medium was changed every two days.” left out, “evaluated. […]” for “evaluated.”

MelCAM [7] = experiment: Flow cytometry of cell surface MelCAM, 451Lu monolayer; assay type: cell-based, human; conditions: 4 μM wortmannin, 6 μM BAY 43-9006, alone or combined, 96 hours
Experimental: as §2, §3, §4

phospho-AKT (Ser473) = experiment: Immunohistochemistry for phosphorylated AKT in melanoma reconstructs; assay type: cell-based, human; conditions: Skmel28 reconstructs; 4 μM wortmannin
Experimental: as §1, with “For submerged culture conditions, 3 ml of melanoma cell culture medium supplemented with 10% FBS were added beneath the insert and 2 ml inside the insert to allow proliferation of the seeded cells. The culture medium was changed every two days.” left out, “evaluated. […]” for “evaluated.”

CNC(=O)c1cc(Oc2ccc(NC(=O)Nc3ccc(Cl)c(C(F)(F)F)c3)cc2)ccn1 [BAY 43-9006, 4{4-[3-(4-chloro-3-trifluoromethylphenyl)-ureido]-phenoxy}-pyridine-2-carboxylic acid methyl amide]
expression of β3 integrin (β3 integrin): significantly reduced; also recorded: substantially reduced β3 integrin expression | expression of MelCAM (MelCAM [1]): not affected; also recorded: did not appear to affect MelCAM expression | cell proliferation (Ki-67 staining) [2]: significant decrease in cell proliferation | cell surface expression of avβ3 integrin (avβ3 integrin): down-regulates the expression of avβ3 integrin; also recorded: down-regulated | effect on number of proliferating (vital) cells / proliferation rate [3]: significantly reduced; also recorded: significant decrease in cell proliferation | active caspase 3 (ongoing apoptosis) [4]: active caspase 3 was found in the majority of Skmel28 metastatic melanoma cells | invasive melanoma growth (number and size of melanoma cell nests) [5]: reduced invasive tumor growth; also recorded: reduced number and size of melanoma cell nests | inhibition of phosphorylation of ERK (MAP-kinase pathway) [6]: effective in the inhibition of phosphorylation

COC[C@H]1OC(=O)c2coc3c2[C@@]1(C)C1=C(C3=O)[C@@H]2CCC(=O)[C@@]2(C)C[C@H]1OC(C)=O [wortmannin]
expression of β3 integrin (β3 integrin): not altered | expression of β3 integrin (β3 integrin; listed as Wortmannin): not affected | expression of MelCAM (MelCAM [1]): downregulated the expression of MelCAM | cell surface expression of MelCAM (MelCAM [7]): downregulates the expression of the adhesion molecules MelCAM; also recorded: down-regulates cell surface expression of MelCAM | cell proliferation (Ki-67 staining) [2]: little or no effect on proliferation rate | effect on number of proliferating (vital) cells / proliferation rate [3]: Little or no effect on the number of proliferating cells; also recorded: no significant effect on the number of proliferating cells | active caspase 3 (ongoing apoptosis) [4]: active caspase 3 was found in the majority of Skmel28 metastatic melanoma cells | cohesion of melanoma cells (melanoma-melanoma cell adhesion) [5]: decreased | morphology of melanoma cells [5]: multidendritic morphology; also recorded: multidendritic phenotype | invasive melanoma growth (number and size of melanoma cell nests) [5]: reduced invasive tumor growth; also recorded: number and size of melanoma cell nests were reduced | inhibition of phosphorylation of AKT (phospho-AKT (Ser473)): effective in the inhibition of phosphorylation
